Test results: a melting point compilation (Tetko et al.; mined from patent text by program, amines drawn as free bases though some values may be those of a salt)

| SMILES | melting point |
| --- | --- |
| CC(C)(C)NC(=O)[C@@H]1CSCN1C[C@@H](O)[C@H](Cc1ccccc1)NC(=O)OCc1ccccc1 | 62 to 65 °C |
| NS(=O)(=O)c1ccccc1OCC1CO1 (stereo not given) | 132 to 133 °C |
| NC(=O)Nc1cccc(CS(=O)(=O)O)c1 | 180 to 187 °C |
| CCCCOc1ccc(C[C@H](NC(=O)[C@H]2CC[C@H](C(C)C)CC2)C(=O)O)cc1 | 120 to 121 °C |
| O=C(Oc1cc(OC(=O)c2cc(O)c(O)c(O)c2)c2ccccc2c1)c1cc(O)c(O)c(O)c1 | 163 to 164 °C |
| COc1ccc([C@@H]2Sc3cc(Cl)ccc3N(CCCN3CCN(c4ccccc4)CC3)C(=O)[C@@H]2O)cc1 (relative stereo) | 70 to 71 °C |
| CCCOc1ccc(Br)c(C(C)=O)c1 | 50 to 52 °C |
| COc1cc(OCC(=O)N[C@@H]2CCN(Cc3ccccc3)C2)ccc1C=NNC(=O)c1ccc(O)c(N)c1 | 157 to 160 °C |
| CNC(=O)Cc1cccc(NC(=O)NC)c1 | 175 to 177 °C |
| CCN1CCCC1CNC(=O)c1nc(Cl)c(N)nc1OC (stereo not given) | 155 °C |
| CCc1n[nH]c(CC)c1CCCCCCOc1ccccc1 | 119 to 121 °C |
| Nc1ccc(C2CCNC2)c(F)c1 (stereo not given) | 108 to 109 °C |
| CCCC(=O)C1=C(O)CC(c2cc(C3CCCO3)no2)CC1=O (stereo not given) | 102 to 104 °C |
| CCOC(=O)c1ccc(C#CC(=O)Nc2ccccc2)cc1 | 114 to 115 °C |
| O=S1(=O)NCN(C2CC2)c2ccc(F)c(Cl)c21 | 198 to 200 °C |
| CC12C=CCC1C1CC=C3CC(O)CCC3(CO)C1CC2 (stereo not given) | 169 to 171 °C |
| CCC(=O)C(CCCOc1ccc(OCCCc2c(CC)n[nH]c2CC)cc1)C(=O)CC | 135 to 136 °C |
| CCCC1(CCC)CCC2(CC1)CC(=O)N(CCC#N)C2=O | 117 to 118 °C |
| Cc1cc(Cl)ccc1NC(=S)N(C)OCC(=O)O | 110 to 113 °C |
| COc1ccc(-c2cc(C(F)F)nn2-c2ccc(S(N)(=O)=O)cc2)cc1 | 133 to 135 °C |
| CNC(=O)C(CCO)C1(C)OCCc2c1[nH]c1ccccc21 (stereo not given) | 169 to 171 °C |

| SMILES | melting point |
| --- | --- |
| COc1ccc(C2=NN(C3CCN(C(=O)N4CCNC4=O)CC3)C(=O)[C@H]3CC=CC[C@@H]23)cc1Cl (relative stereo) | 216 to 218 °C |
| CCOP(=O)(CCCOc1ccc(C(=O)O)cc1)OCC | 107 to 110 °C |
| CC(=O)Nc1c(C#N)c(Cl)c(C#N)n1C | 180 to 182 °C |
| CCOC(=O)C(C(=O)Nc1ccc(C)cc1)(c1ccccc1)c1ccccc1 | 88 to 90 °C |
| O=C1N(Cc2cccc(OC(F)(F)F)c2)c2ccccc2C12COc1cc3c(cc12)OCO3 (stereo not given) | 88 to 91 °C |
| CCOC(=O)c1c(O)c(Br)c(Br)n1-c1ccccc1 | 144 to 145 °C |
| COc1cc(C(=O)CBr)ccc1OCC(F)(F)F | 120 °C |
| CC(C)(C)OC(=O)COC1CCN(C(=O)[C@]2(C)CCCN2C(=O)c2ccc(C#N)cc2)CC1 | 180 to 182 °C |
| NC1CSC(c2ccsc2)CNC1=O (stereo not given) | 190 to 191 °C |
| O=C(O)CCn1cnc2c(Cl)ncnc21 | 163 to 165 °C |
| CCCN1CCCC(NC(=O)C(Cc2ccc(OCc3ccccc3)cc2)NC(=O)C(CC(C)C)N(C)Cc2ccc(N(C)C)cc2)C1 (stereo not given) | 131 to 133 °C |
| CN(C)CC(c1ccccc1)c1nnc2n1-c1ccc(I)cc1C(c1ccccc1)=NC2 (stereo not given) | 192 to 194 °C |
| Oc1ccc(Nc2nnc(Cc3ccncc3)c3ccccc23)cc1 | 239 to 241 °C |
| CCCCCCCCCCOc1cc(OCCCCCCCCCC)cc(C(=O)C(=O)OC)c1 | 49 to 50 °C |
| CCOC(=O)c1c(SC)sc2c(F)c(F)c(F)cc2c1=O | 113 to 115 °C |
| CCCC1CCCCCc2c1oc(=O)c(C(c1ccccc1)C1CC1)c2O (stereo not given) | 78 to 84 °C |
| CCCc1sc(-c2ccccc2)nc1O | 86 to 87 °C |
| COc1ccc(SC2(Sc3ccc(OC)cc3)CCC3C4CCC5=CC(=O)C=CC5(C)C4(F)C(O)CC32C)cc1 (stereo not given) | 209 to 211 °C |
| CN1N=C2C(=Cc3ccccc3)CN(C(N)=O)CC2C1c1ccccc1 (stereo not given) | 191 to 193 °C |
| CC(C)(C)c1cc(CCC(=O)NCc2cccc(NC(=N)c3cccs3)c2)cc(C(C)(C)C)c1O | 163 to 164 °C |
| CC(=O)Nc1cnc(N2CCN(CCCC(=O)c3ccc(F)cc3)CC2)cc1NC(C)=O | 206 to 209 °C |

| SMILES | melting point |
| --- | --- |
| CCCCCCCCCC(=O)c1cc(OC)c(Cl)cc1OC | 53 to 54 °C |
| COc1ccc(N2CCOCC2)c2sc(C(=O)NC3CCN(C(=O)OC(C)(C)C)CCC3O)nc12 (stereo not given) | 71 to 73 °C |
| N#Cc1cc(O)cc(F)c1 | 138 to 139 °C |
| CC(C)(C)CC(C)(C)c1ccc(C(=O)O)cc1 | 153 to 155 °C |
| CCOCCn1c(CN2CCCN(C)CC2)nc2ccccc21 | 119 to 122 °C |
| O=C(O)C1=Cc2cc(CO)ccc2OC1CC(F)(F)F (stereo not given) | 178 to 181 °C |
| ON=C1c2ccccc2CCC1Cc1ccccc1 (stereo not given) | 123 to 124 °C |
| CC(=O)Nc1ccc(OC(F)(F)C(F)F)cc1[N+](=O)[O-] | 80 to 81 °C |
| COc1ccc(N2CCOCC2)c2sc(-c3nc4c([nH]3)CCN(C(C)=O)CC4)nc12 | 195 to 197 °C |
| COC(=O)C(=Cc1ccc2c(c1)OCO2)C(=O)c1cccc(OCc2ccccc2)c1 | 116 to 118 °C |
| CC(=NO)c1ncc(C)nc1C | 85 to 89 °C |
| Nc1nc2c(ncn2COCCOC=O)c(=O)[nH]1 | 225 to 227 °C |
| CC1OC1C1CC(O)C2(C)CCC3C(CCC4CC(OC5CCCCO5)CC(C)C43C)C12 (stereo not given) | 172 to 174 °C |
| CCOC(Cc1ccc(OCCCc2nc(-c3ccc(C(F)(F)F)cc3)oc2C)c2ccsc12)C(=O)O (stereo not given) | 112 to 114 °C |
| Cc1cn(C2CCCCC2)c(=O)nc1N | 205 to 207 °C |
| CCCCCCC(C)Oc1cc(O)c2c(C)c(CCC(=O)OCC)c(=O)oc2c1 (stereo not given) | 116 to 117 °C |
| CC(=CC(=O)c1ccc(Cl)cc1)N(C)C | 103 to 105 °C |
| O=C(OCc1ccccc1)N1C[C@@H]2CN(c3ccc(N4C[C@H](CO)OC4=O)cc3F)C[C@@H]2C1 | 168 to 171 °C |
| NC(=O)C1CCc2c(C(=O)c3ccccc3)cccc21 (stereo not given) | 164 to 166 °C |
| CS(C)=NS(=O)(=O)c1ccc(N2CC(CO)OC2=O)cc1 (stereo not given) | 162 to 164 °C |
| O=C(O)[C@H](Cc1ccccc1)C[C@@H](Cc1ccccc1)C(=O)N[C@@H](COCc1ccccc1)C(=O)O | 149 to 151 °C |

Second part, the molecule after the results:

| melting point | SMILES |
| --- | --- |
| 216 to 217 °C | Cc1ccc2cccc(OCc3c(Cl)ccc(S(=O)(=O)n4cccc4)c3Cl)c2n1 |
| 254 to 257 °C | CN(C)C=NC(=O)c1cc2c(cn1)[nH]c1ccccc12 |
| 100 °C | Cc1cc(-n2ccnc2)c2cccc(OCc3c(Cl)ccc(S(=O)(=O)N4CCC[C@H]4C(=O)NCCN4CCOCC4)c3Cl)c2n1 |
| 132 °C | Fc1ccc(-n2nnc3cccnc32)c(F)c1 |
| 122 to 123 °C | COC(=O)C(N)=Cc1ccc(OCC(O)CNC(C)C)c(Cl)c1 (stereo not given) |
| 221 °C | O=C(CCl)Nc1ccc(NC(=O)CCl)c2c1C(=O)c1ccccc1C2=O |
| 104 to 105 °C | Clc1cc(Cl)c(Oc2c(Cl)ncnc2Cl)c(Cl)c1 |
| 168 to 171 °C | CC(C)(C)NS(=O)(=O)c1cc([N+](=O)[O-])ccc1Cl |
| 213 to 215 °C | COc1ccc(N2CCOCC2)c2sc(-c3ncc(-c4sc5ccccc5c4C)[nH]3)nc12 |
| 290 to 292 °C | Nc1ncc(-c2ccc3ncc(-c4ccc(CO)cc4)n3n2)cc1C(F)(F)F |
| 194 to 196 °C | CC(C)Nc1ncc2cc(-c3c(Cl)cccc3Cl)c(=O)n(C)c2n1 |
| > 250 °C | O=C(Nc1cccc(F)c1)c1ccc(CN2C(=O)C3(COc4cc5c(cc43)CCO5)c3ccccc32)cc1 (stereo not given) |
| 200 to 204 °C | CCOc1cc2ncc(C#N)c(NCc3ccc(OC)c(OC)c3)c2cc1OCC |
| 161 to 164 °C | CS(=O)(=O)c1ccc(-c2cnn(CC(F)(F)F)c(=O)c2Oc2ccc(F)cc2)cc1 |
| 93 to 94 °C | O=S(=O)(Cc1nnc(-c2ccc3c(c2)CCO3)o1)c1cccc(F)c1 |
| 137 to 140 °C | COc1cccc(C(=O)Nc2ccc(N3CCCC3)cc2C(C)=O)c1OC |
| 164 to 166 °C | CSC1C(=O)Nc2c(-c3ccccc3)cccc21 (stereo not given) |
| 128 to 132 °C | CC(=O)N[C@@H](Cc1ccc(-c2cc3ccccc3c3ccccc23)cc1)C(=O)O |
| 191 to 193 °C | O=C1Nc2cc(C(F)(F)F)cc(C(F)(F)F)c2C1(O)c1cc(Cl)ccc1O (stereo not given) |

| melting point | SMILES |
| --- | --- |
| 118 °C | CCOC(=O)c1c(S(N)=O)c2cc(C)ccc2n1C (stereo not given) |
| 253 to 255 °C | Cc1ccc(-n2nc(CC(=O)N(C)C)c3c4ccc(Cl)cc4n(C)c3c2=O)cn1 |
| 198 to 200 °C | Cc1ccc(C(=O)NC(NC(=NC#N)Nc2ccc(Cl)nc2)C(C)(Cl)Cl)cc1 (stereo not given) |
| 109 to 111 °C | CC(C=CCO)Oc1ccc(Oc2cnc3cc(F)ccc3n2)cc1 (stereo not given) |
| 153 to 154 °C | CON(C)C(=O)CC1CN=C(c2cc3cccc(N(C)S(=O)(=O)c4cccs4)c3[nH]2)S1 (stereo not given) |
| 52 to 59 °C | CC(C)C[C@H](NC(=O)OCc1ccccn1)C(=O)N[C@@H](C(C)C)[C@H](O)c1c(-c2ccccc2)c1=O |
| 98 to 100 °C | COCc1cc2c3ccccc3n(C)c(=O)n2n1 |
| 152 to 153 °C | COc1ccc2nc3cc(Cl)ccc3c(Oc3ccc(Cl)cc3)c2c1 |
| 175 to 178 °C | CN1C(=O)Cc2c(sc3ccccc23)S1(=O)=O |
| 203 to 204 °C | O=c1oc(-c2ccc(Sc3ccccc3)cc2)nc2sccc12 |
| > 300 °C | CCCCc1cc(C(=O)Nc2nnn[nH]2)nc(-c2ccc(N)cc2)c1 |
| 101 to 102 °C | CCOC(=O)c1cn(Cc2ccccc2)nc1OCc1ccc(OCc2nc(-c3ccco3)oc2C)cc1 |
| 65 to 70 °C | CCC(Cl)c1nc2c(C(F)(F)F)cccc2c(=O)o1 (stereo not given) |
| 198 to 202 °C | CC1=Cc2cc3c(cc2C(c2ccc([N+](=O)[O-])c(C)c2)=NN1C(=O)NC1CC1)OCO3 |
| 127 to 130 °C | O=C1c2cc(OCc3ccc4ccccc4n3)ccc2SCC1Cc1ccccc1 (stereo not given) |
| > 300 °C | Cn1c(=O)c2[nH]c(C=Cc3cccc(C(F)(F)F)c3)nc2n(C)c1=O |
| 111 °C | CCC(=O)NCC1Cc2cccc3cccc1c23 (stereo not given) |
| 123 °C | C=CCn1c(C)nc2c(O)c(C(=O)[C@@H]3OC(C)(C)O[C@H]3c3ccccc3)ccc21 |
